Here are results for 14 compounds from ChEMBL document CHEMBL1909046, “DrugMatrix in vitro pharmacology data”.

In data set [1] the target is T1, C-X-C chemokine receptor type 2 (Homo sapiens, UniProt P25025). Note: in other assays of this panel Not Active means under 50% inhibition at 10 µM.
T1 sequence (P25025 whole entry): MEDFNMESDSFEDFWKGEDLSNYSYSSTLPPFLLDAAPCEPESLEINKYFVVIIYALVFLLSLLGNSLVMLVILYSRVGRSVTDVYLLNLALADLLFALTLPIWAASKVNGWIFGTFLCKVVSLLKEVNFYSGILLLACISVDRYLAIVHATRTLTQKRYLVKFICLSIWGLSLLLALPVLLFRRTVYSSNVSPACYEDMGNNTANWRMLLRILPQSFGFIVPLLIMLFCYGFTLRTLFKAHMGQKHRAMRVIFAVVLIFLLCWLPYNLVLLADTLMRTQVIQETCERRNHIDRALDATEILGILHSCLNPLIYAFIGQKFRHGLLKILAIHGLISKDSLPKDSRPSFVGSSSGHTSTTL
It counts as cell membranes, Membrane. The following applies: cho-k1.

A further data set deals with T2, Interstitial collagenase (Homo sapiens, UniProt P03956).
T2 sequence (P03956 whole entry): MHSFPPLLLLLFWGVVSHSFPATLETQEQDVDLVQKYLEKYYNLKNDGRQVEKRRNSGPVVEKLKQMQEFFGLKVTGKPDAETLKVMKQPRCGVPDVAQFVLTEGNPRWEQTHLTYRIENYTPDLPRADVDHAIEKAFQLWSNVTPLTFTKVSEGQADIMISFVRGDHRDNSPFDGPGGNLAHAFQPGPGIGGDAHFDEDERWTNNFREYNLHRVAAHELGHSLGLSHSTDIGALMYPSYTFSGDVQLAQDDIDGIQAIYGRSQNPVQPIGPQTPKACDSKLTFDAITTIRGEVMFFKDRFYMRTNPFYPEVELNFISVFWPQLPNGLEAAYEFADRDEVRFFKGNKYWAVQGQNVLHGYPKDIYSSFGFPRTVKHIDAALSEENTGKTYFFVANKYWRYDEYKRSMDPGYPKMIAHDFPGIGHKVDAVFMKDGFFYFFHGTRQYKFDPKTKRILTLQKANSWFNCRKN
Put plainly: biochemical. It counts as tissue-based, Rheumatoid synovial fibroblasts.

Data set [2] in a line: DRUGMATRIX: Phosphodiesterase PDE4 enzyme inhibition (substrate: [3H]cAMP + cAMP). The following applies: u-937; Not Active = under 50% inhibition at 10 µM.
The target of another data set is Cytochrome P450 2C19 (Homo sapiens, UniProt P33261). Conditions: bti-tn-5b1-4. Note: in other assays of this panel Not Active means under 50% inhibition at 10 µM.
Sequence of Cytochrome P450 2C19 (P33261 whole entry): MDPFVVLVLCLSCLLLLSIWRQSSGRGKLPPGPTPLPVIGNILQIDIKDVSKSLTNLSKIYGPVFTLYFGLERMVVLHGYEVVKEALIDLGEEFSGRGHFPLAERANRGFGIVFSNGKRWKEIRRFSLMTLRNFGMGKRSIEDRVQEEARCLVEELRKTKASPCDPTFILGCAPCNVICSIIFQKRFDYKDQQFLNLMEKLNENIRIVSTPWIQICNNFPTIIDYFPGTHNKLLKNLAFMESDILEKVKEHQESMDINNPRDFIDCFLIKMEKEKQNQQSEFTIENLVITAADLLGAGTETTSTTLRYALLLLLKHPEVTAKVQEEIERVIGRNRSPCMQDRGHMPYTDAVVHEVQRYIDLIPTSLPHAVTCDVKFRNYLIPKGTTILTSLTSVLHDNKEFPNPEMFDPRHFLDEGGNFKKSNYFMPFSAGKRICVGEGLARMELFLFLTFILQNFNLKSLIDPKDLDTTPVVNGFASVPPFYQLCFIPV
In data set [3] the target is T3, Cysteinyl leukotriene receptor 1 (Homo sapiens, UniProt Q9Y271). Note: in other assays of this panel Not Active means under 50% inhibition at 10 µM.
T3 sequence (Q9Y271 whole entry): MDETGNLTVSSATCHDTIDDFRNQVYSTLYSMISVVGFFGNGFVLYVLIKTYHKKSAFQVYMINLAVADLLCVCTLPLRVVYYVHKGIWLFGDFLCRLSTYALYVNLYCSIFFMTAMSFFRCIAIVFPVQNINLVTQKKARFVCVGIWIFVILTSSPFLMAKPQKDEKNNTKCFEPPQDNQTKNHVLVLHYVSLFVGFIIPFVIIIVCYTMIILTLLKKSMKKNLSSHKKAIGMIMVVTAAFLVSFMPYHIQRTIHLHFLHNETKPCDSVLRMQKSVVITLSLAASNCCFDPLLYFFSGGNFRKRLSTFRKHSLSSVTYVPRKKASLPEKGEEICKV
The format is cell membranes, CHO-K1, Membrane. The following applies: cho-k1.

A short description of data set [4]: DRUGMATRIX: Leukotriene, BLT (LTB4) radioligand binding (ligand: [3H]LTB4). The format is cell membranes, Membrane. Conditions: u-937; Not Active = under 50% inhibition at 10 µM.
Data set [5] has as its target Tyrosine-protein kinase Fyn (Homo sapiens, UniProt P06241). Put plainly: biochemical. Conditions: insect cells. The format is cell-based, Insect cells.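 Note: enzymatic inhibition of Fyn kinase activity measured with Poly(Glu:Tyr) as the phosphorylation substrate; in other assays of this panel Not Active means under 50% inhibition at 10 µM.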

Sequence of Tyrosine-protein kinase Fyn (P06241 whole entry): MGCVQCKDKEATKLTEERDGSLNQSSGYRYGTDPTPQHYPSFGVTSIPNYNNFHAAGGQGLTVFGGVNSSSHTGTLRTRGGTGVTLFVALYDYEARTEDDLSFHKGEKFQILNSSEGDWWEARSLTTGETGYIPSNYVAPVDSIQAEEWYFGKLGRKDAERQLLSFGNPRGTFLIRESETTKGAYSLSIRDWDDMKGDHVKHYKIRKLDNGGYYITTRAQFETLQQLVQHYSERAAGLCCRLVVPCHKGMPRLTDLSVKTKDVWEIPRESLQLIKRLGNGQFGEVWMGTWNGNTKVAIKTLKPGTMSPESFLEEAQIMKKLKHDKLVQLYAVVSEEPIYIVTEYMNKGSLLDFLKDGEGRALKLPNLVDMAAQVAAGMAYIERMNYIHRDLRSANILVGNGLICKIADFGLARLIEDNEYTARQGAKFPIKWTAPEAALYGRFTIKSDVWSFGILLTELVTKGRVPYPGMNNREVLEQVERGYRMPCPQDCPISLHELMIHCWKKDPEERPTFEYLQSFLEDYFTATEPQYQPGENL

For `Oc1ccc(OCc2ccccc2)cc1` [MONOBENZONE], the IC50 entry (in data set [1]; against Interstitial collagenase; in data set [2]; on Cytochrome P450 2C19; in data set [3]; in data set [4]) was “Not Active” in each case. Besides, in data set [5], the concentration for half-maximal inhibition (IC50) result is listed as “Not Active”. Besides, the Ki result (in data set [2]; at Cytochrome P450 2C19; in data set [4]) was “Not Active” each time.
As to `CC(C)(Oc1ccc(C2CCCc3ccccc32)cc1)C(=O)O` (stereo not drawn) [NAFENOPIN], the half-inhibitory concentration (IC50) result (in data set [1]; against Interstitial collagenase; in data set [2]; against Cytochrome P450 2C19; in data set [3]; in data set [4]) was “Not Active” throughout. The IC50 entry in data set [5] is given as “Not Active”. For the same compound, the Ki entry (in data set [2]; at Cytochrome P450 2C19; in data set [4]) was “Not Active” in each case.
Take `CC(C)[C@H]1CC[C@H](C(=O)N[C@H](Cc2ccccc2)C(=O)O)CC1` [NATEGLINIDE]: the IC50 entry (in data set [1]; at Interstitial collagenase; in data set [2]; on Cytochrome P450 2C19; in data set [3]; in data set [4]) was “Not Active” in each case. The half-maximal inhibitory concentration (IC50) entry in data set [5] is reported as “Not Active”. The Ki result (in data set [2]; on Cytochrome P450 2C19; in data set [4]) was “Not Active” throughout.
For `COc1ccc2[nH]c([S+]([O-])Cc3ncc(C)c(OC)c3C)nc2c1` (stereo not drawn) [OMEPRAZOLE], the IC50 result (in data set [1]; against Interstitial collagenase; in data set [2]; on Cytochrome P450 2C19; in data set [3]; in data set [4]) was “Not Active” throughout. Besides, the IC50 result in data set [5] is listed as “Not Active”. The Ki result (in data set [2]; on Cytochrome P450 2C19; in data set [4]) was “Not Active” in each case.
In the case of `Cc1nccn1CC1CCc2c(c3ccccc3n2C)C1=O` (stereo not drawn) [ONDANSETRON], the concentration for half-maximal inhibition (IC50) result (in data set [1]; on Interstitial collagenase; in data set [2]; at Cytochrome P450 2C19; in data set [3]; in data set [4]) was “Not Active” throughout. Also, the IC50 result in data set [5] is “Not Active”. Also, the Ki result (in data set [2]; at Cytochrome P450 2C19; in data set [4]) was “Not Active” each time.
With `O=C(C1CCCCC1)N1CC(=O)N2CCc3ccccc3C2C1` (stereo not drawn) [PRAZIQUANTEL], the IC50 result (in data set [1]; against Interstitial collagenase; in data set [2]; against Cytochrome P450 2C19; in data set [3]; in data set [4]) was “Not Active” each time. Further, the half-inhibitory concentration (IC50) entry in data set [5] was “Not Active”. Moreover, the Ki result (in data set [2]; on Cytochrome P450 2C19; in data set [4]) was “Not Active” each time.
Consider `CCN(CC)CCOC(=O)c1ccc(N)cc1` [PROCAINE], for which the IC50 result (in data set [1]; on Interstitial collagenase; in data set [2]; against Cytochrome P450 2C19; in data set [3]; in data set [4]) was “Not Active” throughout. The IC50 entry in data set [5] is “Not Active”. Also, the Ki entry (in data set [2]; at Cytochrome P450 2C19; in data set [4]) was “Not Active” each time.
On to `CCCN(CCC)C(=O)C(CCC(=O)O)NC(=O)c1ccccc1` (stereo not drawn) [PROGLUMIDE], for which the IC50 result (in data set [1]; at Interstitial collagenase; in data set [2]; at Cytochrome P450 2C19; in data set [3]; in data set [4]) was “Not Active” in each case. The half-maximal inhibitory concentration (IC50) entry in data set [5] is recorded as “Not Active”. Moreover, the Ki entry (in data set [2]; on Cytochrome P450 2C19; in data set [4]) was “Not Active” each time.
With `NC(=O)c1cnccn1` [PYRAZINAMIDE], the half-inhibitory concentration (IC50) result (in data set [1]; against Interstitial collagenase; in data set [2]; on Cytochrome P450 2C19; in data set [3]; in data set [4]) was “Not Active” in each case. In addition, the half-inhibitory concentration (IC50) entry in data set [5] is reported as “Not Active”. The Ki entry (in data set [2]; at Cytochrome P450 2C19; in data set [4]) was “Not Active” in each case.
Take `OC(CCN1CCCCC1)(c1ccccc1)C1CCCCC1` (stereo not drawn) [TRIHEXYPHENIDYL]: the IC50 result (in data set [1]; at Interstitial collagenase; in data set [2]; on Cytochrome P450 2C19; in data set [3]; in data set [4]) was “Not Active” each time. Besides, the concentration for half-maximal inhibition (IC50) result in data set [5] is recorded as “Not Active”. For the same compound, the Ki result (in data set [2]; at Cytochrome P450 2C19; in data set [4]) was “Not Active” each time.
With `Cc1cc2cc3c(C)cc(=O)oc3c(C)c2o1` [TRIOXSALEN], the IC50 entry (in data set [1]; against Interstitial collagenase; in data set [2]; against Cytochrome P450 2C19; in data set [3]; in data set [4]) was “Not Active” in each case. The half-inhibitory concentration (IC50) entry in data set [5] is reported as “Not Active”. Besides, the Ki entry (in data set [2]; on Cytochrome P450 2C19; in data set [4]) was “Not Active” each time.
For `CCCC(CCC)C(=O)O` [VALPROIC ACID], the IC50 entry (in data set [1]; against Interstitial collagenase; in data set [2]; on Cytochrome P450 2C19; in data set [3]; in data set [4]) was “Not Active” in each case. For the same compound, in data set [5], the IC50 entry is recorded as “Not Active”. The Ki entry (in data set [2]; on Cytochrome P450 2C19; in data set [4]) was “Not Active” in each case.
Consider `CCC1=C[C@@H]2CN(C1)Cc1c([nH]c3ccccc13)[C@@](C(=O)OC)(c1cc3c(cc1OC)N(C)[C@H]1[C@@](O)(C(=O)OC)[C@H](OC(C)=O)[C@]4(CC)C=CCN5CC[C@]31[C@@H]54)C2` [VINORELBINE], for which the IC50 entry (in data set [1]; against Interstitial collagenase; in data set [2]; against Cytochrome P450 2C19; in data set [3]; in data set [4]) was “Not Active” throughout. Besides, in data set [5], the 50% inhibitory concentration (IC50) result is recorded as “Not Active”. In addition, the Ki entry (in data set [2]; at Cytochrome P450 2C19; in data set [4]) was “Not Active” in each case.
For CADMIUM DICHLORIDE, the IC50 result (in data set [1]; against Interstitial collagenase; in data set [2]; on Cytochrome P450 2C19; in data set [3]; in data set [4]) was “Not Active” each time. Moreover, the IC50 in data set [5] (read-out: IC50) turned out to be 137 nM. Besides, the Ki entry (in data set [1]; on Interstitial collagenase; in data set [2]; on Cytochrome P450 2C19; in data set [3]; in data set [4]) was “Not Active” each time.
